Experimental data taken from patent publication US9187467B2, “2-phenyl benzothiazole linked imidazole compounds as potential anticancer agents and process for the preparation thereof” (Council of Scientific and Industrial Research, priority 2012, dated 2015).
Where two headings read alike, the source gives them in different places.

Tests used:
[1] = tested on: A549/ATCC; assay: SRB anticancer assay, non-small lung; assay type: cell-based, human; settings: Homo sapiens, 48 h
[2] = tested on: 786-0; assay: SRB anticancer assay, renal; assay type: cell-based, human; settings: Homo sapiens, 786-0, 48 h
[3] = tested on: MCF7; assay: SRB anticancer assay, breast; assay type: cell-based, human; settings: Homo sapiens, MCF7, 48 h
[4] = tested on: TK-10; assay: SRB anticancer assay, renal; assay type: cell-based, human; settings: Homo sapiens, TK-10, 48 h
[5] = tested on: NCI-H522; assay: SRB anticancer assay, non-small lung; assay type: cell-based, human; settings: Homo sapiens, NCI-H522, 48 h
[6] = tested on: HS 578T; assay: SRB anticancer assay, breast; assay type: cell-based, human; settings: Homo sapiens, 48 h
[7] = tested on: SF-295; assay: SRB anticancer assay, CNS; assay type: cell-based, human; settings: Homo sapiens, SF-295, 48 h
[8] = tested on: DU-145; assay: SRB anticancer assay, prostate; assay type: cell-based, human; settings: Homo sapiens, DU-145, 48 h
[9] = tested on: Ovarian cancer cell lines; assay: SRB anticancer assay, panel result; assay type: cell-based, human
Experimental: (§1) The compounds were evaluated for anticancer activity against sixty human cancer cells derived from nine cancer types (leukemia cell line, non-small-cell lung cell line, colon cell line, CNS cell line, melanoma cell line, ovarian cell line, prostate cell line, renal cancer cell line and breast cancer cell line) as shown in Table 1. For each compound, dose response curves for each cell line were measured at a minimum of five concentrations at 10 fold dilutions. A protocol of 48 h continuous drug exposure was used and a sulforhodamine B (SRB) protein assay was used to estimate cell viability or growth.

[10] = tested on: Prostate cancer cell lines; assay: SRB anticancer assay, panel result; assay type: cell-based, human
Experimental: as §1

[11] = tested on: Non-small cell lung cancer cell lines; assay: SRB anticancer assay, panel result; assay type: cell-based, human
Experimental: as §1

[12] = tested on: Breast cancer cell lines; assay: SRB anticancer assay, panel result; assay type: cell-based, human
Experimental: as §1

[13] = tested on: Leukemia cancer cell lines; assay: SRB anticancer assay, panel result; assay type: cell-based, human
Experimental: as §1

[14] = tested on: Colon cancer cell lines; assay: SRB anticancer assay, panel result; assay type: cell-based, human
Experimental: as §1

[15] = tested on: Renal cancer cell lines; assay: SRB anticancer assay, panel result; assay type: cell-based, human
Experimental: as §1

[16] = tested on: CNS cancer cell lines; assay: SRB anticancer assay, panel result; assay type: cell-based, human
Experimental: as §1

[17] = tested on: Melanoma cancer cell lines; assay: SRB anticancer assay, panel result; assay type: cell-based, human
Experimental: as §1

[18] = tested on: UACC-62; assay: SRB anticancer assay, melanoma; assay type: cell-based, human; settings: Homo sapiens, UACC-62, 48 h
[19] = tested on: HT29; assay: SRB anticancer assay, colon; assay type: cell-based, human; settings: Homo sapiens, HT-29; HT29, 48 h
[20] = tested on: SK-MEL-2; assay: SRB anticancer assay, melanoma; assay type: cell-based, human; settings: Homo sapiens, SK-MEL-2, 48 h
[21] = tested on: MALME-3M; assay: SRB anticancer assay, melanoma; assay type: cell-based, human; settings: Homo sapiens, Malme-3M, 48 h
[22] = tested on: SNB-75; assay: SRB anticancer assay, CNS; assay type: cell-based, human; settings: Homo sapiens, SNB-75, 48 h
[23] = tested on: PC-3; assay: SRB anticancer assay, prostate; assay type: cell-based, human; settings: Homo sapiens, PC-3, 48 h
[24] = tested on: K562 (Leukemia) cells; assay: Cell cycle distribution by flow cytometry; assay type: cell-based
Procedure, shortened: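 Compound-treated K562 cells analysed for cell-cycle distribution by flow cytometry; values given as % of cells.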

[25] = tested on: LOX IMVI; assay: SRB anticancer assay, melanoma; assay type: cell-based, human; settings: Homo sapiens, 48 h

COc1cc(OC)c2sc(-c3ccc(-n4cncc4-c4cc(OC)c(OC)c(OC)c4)cc3)nc2c1 [Compound 6f, 5,7-Dimethoxy-2-(4-(5-(3,4,5-trimethoxyphenyl)-1H-imidazol-1-yl)phenyl)benzo[d]thiazole]
GI50 [1]: 6.16 µM | GI50 [2]: 7.38 µM | GI50 [3]: 3.88 µM | GI50 [4]: 9.4 µM | GI50 [5]: 3.27 µM | GI50 [6]: 5.23 µM | GI50 [7]: 4.42 µM | GI50 [8]: > 100 µM | LC50 ([9]; Homo sapiens, Ovarian panel, 50% net cell death, read-out: mean graph midpoint value (MG_MID) of Log10 LC50 (converted)): > 100 µM | GI50 ([9]; Homo sapiens, Ovarian panel, read-out: mean graph midpoint value (MG_MID) of Log10 GI50 (converted)): 16.6 µM | GI50 ([9]; Homo sapiens, seven ovarian cancer cell lines, exposure at least 48 h, read-out: GI50, range over the panel): 3.25 to 5.87 µM | mean graph midpoint value (MG_MID) of log10 TGI ([9]; Ovarian panel, total inhibition of net cell growth): >−4.0 | LC50 ([10]; Homo sapiens, Prostate panel, 50% net cell death, read-out: mean graph midpoint value (MG_MID) of Log10 LC50 (converted)): > 100 µM | GI50 ([10]; Homo sapiens, Prostate panel, read-out: mean graph midpoint value (MG_MID) of Log10 GI50 (converted)): 16.2 µM | GI50 ([10]; Homo sapiens, two prostate cancer cell lines (PC-3, DU-145), exposure at least 48 h, read-out: GI50, range over the panel): 2.54 µM | mean graph midpoint value (MG_MID) of log10 TGI ([10]; Prostate panel, total inhibition of net cell growth): >−4.0 | LC50 ([11]; Homo sapiens, Non-small cell lung panel, 50% net cell death, read-out: mean graph midpoint value (MG_MID) of Log10 LC50 (converted)): > 100 µM | GI50 ([11]; Homo sapiens, Non-small cell lung panel, read-out: mean graph midpoint value (MG_MID) of Log10 GI50 (converted)): 11.2 µM | GI50 ([11]; Homo sapiens, nine Non-small cell lung cancer cell lines, exposure at least 48 h, read-out: GI50, range over the panel): 3.27 to 75.9 µM | mean graph midpoint value (MG_MID) of log10 TGI ([11]; Non-small cell lung panel, total inhibition of net cell growth): >−4.0 | mean graph midpoint value (MG_MID) of log10 TGI ([12]; Breast panel, total inhibition of net cell growth): >−4.0 | CC50 ([12]; Homo sapiens, Breast panel, 50% net cell death, read-out: mean graph midpoint value (MG_MID) of Log10 LC50 (converted)): > 100 µM | GI50 ([12]; Homo sapiens, Breast panel, read-out: mean graph midpoint value (MG_MID) of Log10 GI50 (converted)): 3.8 µM | GI50 ([12]; Homo sapiens, six breast cancer cell lines, exposure at least 48 h, read-out: GI50, range over the panel): 3.27 to 5.23 µM | LC50 ([13]; Homo sapiens, Leukemia panel, 50% net cell death, read-out: mean graph midpoint value (MG_MID) of Log10 LC50 (converted)): > 100 µM | GI50 ([13]; Homo sapiens, Leukemia panel, read-out: mean graph midpoint value (MG_MID) of Log10 GI50 (converted)): 3.89 µM | GI50 ([13]; Homo sapiens, six leukemia cancer cell lines, exposure at least 48 h, read-out: GI50, range over the panel): 3.24 to 5.39 µM | mean graph midpoint value (MG_MID) of log10 TGI ([13]; Leukemia panel, total inhibition of net cell growth): >−4.0 | mean graph midpoint value (MG_MID) of log10 TGI ([14]; Colon panel, total inhibition of net cell growth): >−4.0 | LC50 ([14]; Homo sapiens, Colon panel, 50% net cell death, read-out: mean graph midpoint value (MG_MID) of Log10 LC50 (converted)): > 100 µM | GI50 ([14]; Homo sapiens, Colon panel, read-out: mean graph midpoint value (MG_MID) of Log10 GI50 (converted)): 7.41 µM | GI50 ([14]; Homo sapiens, seven colon cancer cell lines, exposure at least 48 h, read-out: GI50, range over the panel): 3.92 to 5.96 µM | CC50 ([15]; Homo sapiens, Renal panel, 50% net cell death, read-out: mean graph midpoint value (MG_MID) of Log10 LC50 (converted)): > 100 µM | GI50 ([15]; Homo sapiens, Renal panel, read-out: mean graph midpoint value (MG_MID) of Log10 GI50 (converted)): 6.61 µM | GI50 ([15]; Homo sapiens, eight renal cancer cell lines, exposure at least 48 h, read-out: GI50, range over the panel): 1.83 to 9.4 µM | mean graph midpoint value (MG_MID) of log10 TGI ([15]; Renal panel, total inhibition of net cell growth): >−4.0 | mean graph midpoint value (MG_MID) of log10 TGI ([16]; CNS panel, total inhibition of net cell growth): >−4.0 | CC50 ([16]; Homo sapiens, CNS panel, 50% net cell death, read-out: mean graph midpoint value (MG_MID) of Log10 LC50 (converted)): > 100 µM | GI50 ([16]; Homo sapiens, CNS panel, read-out: mean graph midpoint value (MG_MID) of Log10 GI50 (converted)): 15.8 µM | GI50 ([16]; Homo sapiens, six CNS cancer cell lines, exposure at least 48 h, read-out: GI50, range over the panel): 4.15 to 8.59 µM | LC50 ([17]; Homo sapiens, Melanoma panel, 50% net cell death, read-out: mean graph midpoint value (MG_MID) of Log10 LC50 (converted)): > 100 µM | GI50 ([17]; Homo sapiens, Melanoma panel, read-out: mean graph midpoint value (MG_MID) of Log10 GI50 (converted)): 6.61 µM | GI50 ([17]; Homo sapiens, nine melanoma cancer cell lines, exposure at least 48 h, read-out: GI50, range over the panel): 2.46 to 7.91 µM | mean graph midpoint value (MG_MID) of log10 TGI ([17]; Melanoma panel, total inhibition of net cell growth): >−4.0 | GI50 [18]: 4.14 µM | GI50 [19]: 4.88 µM | GI50 [20]: 6.09 µM | GI50 [21]: 3.73 µM | GI50 [22]: 6.47 µM | GI50 [23]: 2.54 µM | cells in G2/M phase [24]: 14% | GI50 [25]: 5.4 µM
